One assay relates to E. Coli. The settings on record: gram negative (E. Coli); cited from earlier work.
Another assay has as its system Staph aureus. The settings on record: gram positive (Staph aureus); cited from earlier work.
Assay [1] relates to Porphyromonas Gingivalis and Prevotella Intermedia. The assay is described as follows: Lethal photosensitization of oral pathogens in vitro, colony count after methylene blue stain and red-filtered halogen light. The format is cell-based. As for the experimental part:
Suitable stain dosages for providing lethal sensitization of oral pathogens are determined in vitro by the following procedure. An objective is to determine the minimum duration of light exposure and minimum agent dilution required to achieve at least a 50% reduction in bacteria counts. Experimental tests are performed on two common pathogens using a continuously working, high intensity, red filtered halogen lamp. Red light from the filtered halogen lamp is transmitted through a flexible light guide to radiate downwardly onto petri dishes containing samples of live bacteria of species Porphyromonas Gingivalis and Prevotella Intermedia using the protocols described below.
(§1) Bacteria. Prevotella Intermedia is isolated from patient sample material, identified in the laboratory using standard diagnostic test systems (Remel Inc., Lenexa, Kans., USA) and is maintained by twice-weekly subculture in thioglycollate medium (Becton Dickinson and Co, Sparks, Md., USA). P. gingivalis ATCC 33277 obtained from Remel Inc., is maintained by a twice-weekly subculture on CDC anaerobe blood agar (Becton Dickinson and Co, USA) and in thioglycollate medium (Becton Dickinson and Co, USA).
(§2) Light Source. The source for light energy is a continuously working, high intensity halogen lamp having a built-in 250-Watt quartz halogen light source, model 1-250 supplied by Medithon, New York, N.Y., USA. Such lights are customarily employed for ear, nose or throat procedures. The light is transmitted through a flexible light guide and filtered to maintain maximum energy output at wavelengths in the vicinity of about 650 nm using a broadband red filter (Edmund Optics Inc., Barrington, N.J., USA). The light output power density measured at 3 cm distance from the end of the light guide with filter is about 50 milliwatts/cm2.
Photosensitizer. […] Serial dilutions with water of initial solution with respective concentrations of 0.1%, 0.075%, 0.05%, 0.025% and 0.01% are prepared from the initial solution using sterile 10-ml bottles of normal saline and sterile syringes.
Lethal photosensitization of P. Intermedia. Petri dishes containing CDC anaerobe blood agar (Becton Dickinson and Co, USA) are inoculated with 0.5 ml of broth containing 5×10^5 CFU/ml and left closed at room temperature for about 10 minutes to let the broth penetrate the agar media. […] Only plates with concentrations of 0.01%, and 0.025% are used in the experiment with 20 min light exposure. Four plates are used for each experiment. […] The controls are covered to protect them from ambient light. […] A total of 108 subcultures is used for the experiment. Plates are incubated in anaerobic conditions in the jars using anaerobic pack kits (BBL GasPak Plus, Becton Dickinson and Co, Sparks, Md., USA) at 37° C. for 24 hours. Samples of the resulting culture growth are taken from each plate with sterile […] standard loop, dispensed in 1 ml of sterile NS and placed at the same media. Cultures are incubated at anaerobic conditions at 37° C. for another 24 hours, and after that the resulting colony count is performed on each plate.
Lethal photosensitization of P. Gingivalis. Serial dilutions of the P. gingivalis culture are prepared from the initial culture preserved on plates using 1:L sterile standard loop (Becton Dickinson and Co, USA) and sterile NS. AVitek calorimeter (Hach Company, Loveland, Colo., USA) is used to achieve a final concentration of about 5×10^3 CFU/ml from an initial 0.5 standard McFarland suspension of 10^8 CFU/ml. Plates containing CDC anaerobic blood agar (Becton Dickinson and Co, USA) are inoculated with the resulting suspension using sterile 10:L standard loops (Becton Dickinson and Co, USA). […] Plates are also incubated at 37° C. in the tightly closed jars supplied with anaerobic pack kits (BBL GasPak Plus, Becton Dickinson and Co, USA) for 24 hours, and the resulting colony count is performed on each plate.
Statistical analyses can be carried out using single-factor analysis of variance.

Another assay relates to P. gingivalis ATCC 33277. The assay can be described thus: Lethal photosensitization of P. Gingivalis, colony count. The assay is classed as cell-based, Porphyromonas Gingivalis.
From the text: as §1, §2
Photosensitizer. […] Serial dilutions with water of initial solution with respective concentrations of 0.1%, 0.075%, 0.05%, 0.025% and 0.01% are prepared from the initial solution using sterile 10-ml bottles of normal saline and sterile syringes. […]

In assay [2] the test system is Porphyromonas Gingivalis and Prevotella Intermedia. The assay can be described thus: Lethal photosensitization of oral pathogens in vitro, colony count after methylene blue stain and red-filtered halogen light. The format is cell-based. The settings on record: methylene blue 0.001% or 0.025%, without halogen light.
The next assay deals with Candida albicans. As to conditions: MB 450 and 500 microgram/mL, diode laser light 664 nm, 275 J/cm fiber length, 400 mW, 687.5 seconds, immunosuppressed murine model; cited from earlier work.

“Also recorded” adds a separate entry of the source.

As to `Cc1cc2nc3ccc(N(C)C)cc3[s+]c2cc1N.[Cl-]` [toluidine blue 0], the phototoxicity entry in the assay with E. Coli and in the assay with Staph aureus was “bacterial cell death” in each case.

Take `CN(C)c1ccc2nc3ccc(=[N+](C)C)cc-3sc2c1` [methylene blue]: the Reduction of bacteria result in assay [1] (0.05% methylene blue alone, without exposure to light) is “insignificant”. In addition, the “difference between exposure for 10 and 20 minutes” value in assay [1] (either species, any concentration of methylene blue) is reported as “No statistically significant difference”. In addition, the “reduction in bacteria counts” value in assay [1] (light exposure 1 min, methylene blue 0.05% and higher) is on record as “Significant reduction in bacteria counts”; in assay [1] (light exposure 5 min, methylene blue 0.025%), “Significant reduction in bacteria counts”. Also, the bactericidal effect entry in assay [1] (methylene blue 0.01% or higher with red-filtered high-intensity light, exposure less than 10 minutes, accumulated energy 30 J/cm^2) is reported as “bactericidal effect”; in assay [1] (methylene blue 0.075% and 0.1%, without light exposure), “significant bactericidal effect; also recorded: significantly bactericidal”; in the assay with P. gingivalis ATCC 33277 (methylene blue 0.1%, P. gingivalis), “bactericidal effect”. Further, the “killing with duration of light exposure” value is listed as “statistically significant increased killing with duration” in assay [1] (methylene blue 0.025%, time intervals 5 and 10 min, both cultures); “statistically significant increased killing with duration” in assay [1] (methylene blue 0.05%, time intervals 1 min, 5 min and 10 min, both cultures). Besides, the bacterial count reduction result in assay [1] (methylene blue 0.075% and 0.1%, light exposure 1 min, both cultures) is given as “statistically significant bacterial count reduction”. For the same compound, the bacterial killing result with P. gingivalis ATCC 33277 (methylene blue 0.01%, without light exposure, P. gingivalis culture) is reported as “statistically significant bacterial killing”. Moreover, the killing bacteria result in assay [2] is listed as “nor concentrations of methylene blue of 0.001% or 0.025%, without halogen light, appeared to be effective in killing bacteria”. Besides, the “eradication of Candida albicans” value in the assay with Candida albicans is “totally eradicate”. The phototoxicity entry with E. Coli and with Staph aureus was “bacterial cell death” throughout.

Values taken from patent US7435252B2, “Control of microorganisms in the sino-nasal tract” (priority 2003, dated 2008).
